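Grown in 96-well plates, cells were treated for 48 hours with each compound at five concentrations. Insufficient inhibition: endpoint recorded as highest concentration tested. GI50 is the concentration that inhibits growth by half.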 Activity calls are given as the source filed them. Cut-off read from the data, not from the text of the source: active = GI50 up to about 1.1 µM and inactive = higher.
Key:
Assay in all cases: growth of human tumour cells (NCI), 48 h
EKVX = test system: EKVX
HCC 2998 = test system: HCC 2998
HCT-116 = test system: HCT-116
HOP-92 = test system: HOP-92
HT-29 = test system: HT-29
IGROV-1 = test system: IGROV-1
LOX IMVI = test system: LOX IMVI
MDA-N = test system: MDA-N
NCI-H226 = test system: NCI-H226
OVCAR-3 = test system: OVCAR-3
OVCAR-5 = test system: OVCAR-5
RPMI-8226 = test system: RPMI-8226
SF-295 = test system: SF-295
SF-539 = test system: SF-539
SK-OV-3 = test system: SK-OV-3
SNB-19 = test system: SNB-19
SR = test system: SR
SW-620 = test system: SW-620
TK-10 = test system: TK-10
UACC-62 = test system: UACC-62
786-0 = test system: 786-0
A498 = test system: A498
ACHN = test system: ACHN
CCRF-CEM = test system: CCRF-CEM
HCT-15 = test system: HCT-15
HL-60 = test system: HL-60
Hs-578T = test system: Hs-578T
K562 = test system: K562
M14 = test system: M14
MCF7 = test system: MCF7
MDA-MB-231 = test system: MDA-MB-231
NCI-H23 = test system: NCI-H23
NCI-H460 = test system: NCI-H460
NCI-H522 = test system: NCI-H522
OVCAR-4 = test system: OVCAR-4
OVCAR-8 = test system: OVCAR-8
RXF 393 = test system: RXF 393
SF-268 = test system: SF-268
SK-MEL-5 = test system: SK-MEL-5
SNB-75 = test system: SNB-75
U-251 = test system: U-251
UACC-257 = test system: UACC-257
A549 = test system: A549
CAKI-1 = test system: CAKI-1
COLO 205 = test system: COLO 205
DU-145 = test system: DU-145
HOP-62 = test system: HOP-62
KM12 = test system: KM12
MOLT-4 = test system: MOLT-4
Malme-3M = test system: Malme-3M
PC-3 = test system: PC-3
SK-MEL-28 = test system: SK-MEL-28
SN12C = test system: SN12C
T47D = test system: T47D

CN(NC(=O)CC(=O)NN(C)C(=S)c1ccccc1)C(=S)c1ccccc1 [ELESCLOMOL]
GI50 (EKVX): 33.9 µM (inactive)
GI50 (HCC 2998): 64.7 µM (inactive)
GI50 (HCT-116): 62.1 µM (inactive)
GI50 (HOP-92): > 100 µM (inactive)
GI50 (HT-29): < 0.01 µM (active)
GI50 (IGROV-1): > 100 µM (inactive)
GI50 (LOX IMVI): 35.4 µM (inactive)
GI50 (MDA-N): > 100 µM (inactive)
GI50 (NCI-H226): 83.8 µM (inactive)
GI50 (OVCAR-3): > 100 µM (inactive)
GI50 (OVCAR-5): > 100 µM (inactive)
GI50 (RPMI-8226): < 0.01 µM (active)
GI50 (SF-295): 46 µM (inactive)
GI50 (SF-539): > 100 µM (inactive)
GI50 (SK-OV-3): > 100 µM (inactive)
GI50 (SNB-19): 84.7 µM (inactive)
GI50 (SR): 28.3 µM (inactive)
GI50 (SW-620): 67 µM (inactive)
GI50 (TK-10): > 100 µM (inactive)
GI50 (UACC-62): 50.2 µM (inactive)

COc1ccc2cc1Oc1ccc(cc1)C[C@@H]1c3cc(c(OC)cc3CCN1C)Oc1c(OC)c(OC)cc3c1[C@H](C2)N(C)CC3 [ISOTETRANDRINE]
GI50 (786-0): 24.7 µM (inactive)
GI50 (A498): 19.7 µM (inactive)
GI50 (ACHN): 13.4 µM (inactive)
GI50 (CCRF-CEM): 16.9 µM (inactive)
GI50 (HCC 2998): 12.7 µM (inactive)
GI50 (HCT-116): 17.7 µM (inactive)
GI50 (HCT-15): 11.2 µM
GI50 (HL-60): 10.8 µM (inactive)
GI50 (HOP-92): > 10 µM (inactive)
GI50 (Hs-578T): 16.7 µM (inactive)
GI50 (IGROV-1): 20.7 µM (inactive)
GI50 (K562): 4.16 µM (inactive)
GI50 (M14): 11.1 µM (inactive)
GI50 (MCF7): 14 µM (inactive)
GI50 (MDA-MB-231): 14.7 µM (inactive)
GI50 (NCI-H23): 15.8 µM (inactive)
GI50 (NCI-H460): 15.2 µM (inactive)
GI50 (NCI-H522): 12.6 µM (inactive)
GI50 (OVCAR-3): 18.2 µM (inactive)
GI50 (OVCAR-4): 17.9 µM (inactive)
GI50 (OVCAR-8): 17.9 µM (inactive)
GI50 (RXF 393): 1.44 µM (inactive)
GI50 (SF-268): 21.7 µM (inactive)
GI50 (SF-295): 16.3 µM (inactive)
GI50 (SF-539): 8.89 µM (inactive)
GI50 (SK-MEL-5): 11.8 µM (inactive)
GI50 (SK-OV-3): 40.2 µM (inactive)
GI50 (SNB-19): 20.4 µM (inactive)
GI50 (SNB-75): 12.4 µM (inactive)
GI50 (SR): 2.41 µM (inactive)
GI50 (TK-10): 19.1 µM (inactive)
GI50 (U-251): 22.2 µM (inactive)
GI50 (UACC-257): 11.3 µM (inactive)

CCC1(c2ccccc2)Sc2ccccc2-n2cccc2C1=O (stereo unspecified)
GI50 (786-0): > 10 µM (inactive)
GI50 (A549): > 10 µM (inactive)
GI50 (CAKI-1): > 10 µM (inactive)
GI50 (CCRF-CEM): > 10 µM (inactive)
GI50 (COLO 205): > 10 µM (inactive)
GI50 (DU-145): > 10 µM (inactive)
GI50 (EKVX): > 10 µM (inactive)
GI50 (HCC 2998): > 10 µM (inactive)
GI50 (HCT-15): 8.79 µM
GI50 (HL-60): 4.12 µM (inactive)
GI50 (HOP-62): > 10 µM (inactive)
GI50 (HT-29): 9.62 µM (inactive)
GI50 (IGROV-1): > 10 µM (inactive)
GI50 (K562): 4.6 µM (inactive)
GI50 (KM12): 7.8 µM (inactive)
GI50 (M14): > 10 µM (inactive)
GI50 (MCF7): > 10 µM (inactive)
GI50 (MDA-MB-231): 9.31 µM (inactive)
GI50 (MDA-N): 3.5 µM (inactive)
GI50 (MOLT-4): 5.37 µM (inactive)
GI50 (Malme-3M): 8.34 µM (inactive)
GI50 (NCI-H23): > 10 µM (inactive)
GI50 (OVCAR-8): > 10 µM (inactive)
GI50 (PC-3): 8.53 µM (inactive)
GI50 (RPMI-8226): 4.32 µM (inactive)
GI50 (RXF 393): 9.79 µM (inactive)
GI50 (SF-295): > 10 µM (inactive)
GI50 (SK-MEL-28): > 10 µM (inactive)
GI50 (SK-MEL-5): > 10 µM (inactive)
GI50 (SK-OV-3): > 10 µM (inactive)
GI50 (SN12C): > 10 µM (inactive)
GI50 (SNB-75): > 10 µM (inactive)
GI50 (SR): 3.79 µM (inactive)
GI50 (SW-620): > 10 µM (inactive)
GI50 (T47D): > 10 µM (inactive)
GI50 (TK-10): > 10 µM (inactive)
GI50 (UACC-257): > 10 µM (inactive)
GI50 (UACC-62): > 10 µM (inactive)
